Read-outs that look alike come from different tables or passages of the source.
How the values were obtained:
Na+/K+-ATPase = Na+/K+-ATPase (Cricetulus griseus, UniProt A0A8C2N4Z0); experiment: Non-radioactive rubidium ion uptake assay, CHO-K1 cells; assay type: cell-based, hamster; settings: read-out: Na+/K+-ATPase Inhibition IC50
Procedure: Na/K-ATPase Assays. Inhibition of Na^+/K^+-ATPase on HEK-293 cells and CHO-K1 cells by the library hits was determined by Aurora Biomed, Inc. using a high-throughput non-radioactive rubidium ion uptake assay. Experiments were conducted in duplicate using three different concentrations. Within each experiment, percent inhibition values at the three concentrations were expressed as the percent reduction of the maximum absorption signal observed for a 0 nM control. IC50 values were determined using the following formula: IC50=[(50−low %)/(high %−low %)]×(high conc.−low conc.)+low conc.
To assess how these structural modifications impact the ability of library members to inhibit Na^+/K^+-ATPases, a fundamental activity of cardiac glycosides (Paula, S., et al., (2005) Biochemistry 44, 498-510), library hits 5β, 15β, 23β, 27β, 33β, 40β, and digitoxin (1) were submitted to a non-radioactive rubidium uptake assay to gauge Na^+/K^+-ATPase inhibition in both […] human embryonic kidney cells and CHO-K1 hamster ovary cells (Gill, S. et al., (2004) ASSAY and Drug Development Technologies 2, 535-542).

MCF7 = experiment: High-throughput calcein AM cytotoxicity assay, MCF7; assay type: cell-based, human; settings: read-out: IC50, MCF7
From the text: Standard errors are depicted with error bars.

[1] = system: nine human cancer cell lines and a mouse mammary normal epithelial control line; experiment: High-throughput calcein AM cytotoxicity assay, whole cell line panel
From the text: In the assay, live cells were distinguished by the presence of a ubiquitous intracellular enzymatic activity which converts the non-fluorescent cell-permeable molecule calcein AM to the intensely fluorescent molecule calcein, which is retained within live cells. The IC50 value for each library member represents at least six replicates of dose-response experiments conducted over five concentrations using two-fold dilutions. […] Standard errors are depicted with error bars. Numerical values and corresponding error values can be found in Table 4. Du145: […]; MCF7: human breast carcinoma; HCT-116: human colon carcinoma, Hep3B: human liver carcinoma; SF-268: human CNS glioblastoma; SK-OV-3: human ovary adenocarcinoma; NCI-H460: human lung carcinoma; A549: human lung adenocarcinoma; NCI/ADR-RES: human breast carcinoma; NmuMG: mouse mammary normal epithelial.
Cell Culture: All cell lines except NmuMG were maintained in RPMI 1640 medium from InVitrogen (Cat No. 11875-085) supplemented with 10% w/v fetal bovine serum (FBS) from ICN (Cat No. 2916154) and penicillin-streptomycin (PS) (100 U/mL and 100 μg/mL) from InVitrogen (Cat No. 15140-122). NmuMG cells were maintained in DMEM medium from InVitrogen (Cat No. 11965-084) supplemented with 10% w/v fetal bovine serum (FBS) from ICN (Cat No. 2916154), 10 μg/ml insulin (InVitrogen Cat No 12585-014), and penicillin-streptomycin (PS) (100 U/mL and 100 μg/mL) from InVitrogen (Cat No. 15140-122). Cells were harvested by trypsinization using 0.25% w/v trypsin and 0.1% w/v EDTA from InVitrogen (Cat No. 15-050-057) and then counted in a hemocytometer in duplicate with better than 10% agreement in field counts. Cells were plated at a cell density of 10,000-15,000 cells/well of each Corning Costar 96-well black tissue culture treated microtiter plate (Fisher Cat No. 07-200-627). Cells were grown for 1 h at 37° C., with 5% CO2 in a humidified incubator to allow cell attachment to occur before compound addition.
Library Member Handling and Preparation for Cytotoxicity Assays: Library members were stored at −20° C. under dessicating conditions before the assay. Library member stocks (100×) were prepared in Corning Costar polypropylene 96-well V-bottom polypropylene microtiter plates (Fisher Cat No. 07-200-695). Five serial 1:2 dilutions were made with anhydrous DMSO at 100× the final concentration used in the assay.
Library Member Addition: The library member-containing plates were diluted 1:10 with complete cell culture media. The 10× stocks (10 μL) were added to the attached cells using a Biomek FX liquid handler (Beckman-Coulter). Library member stocks (10 μL) were added to 90 μL of cells in each plate to insure full mixing of stocks with culture media using a Beckman FX liquid handler with 96-well head.
Determination of Cytotoxicity: Cells were incubated with the library members for 72 h before fluorescence reading. Test plates were removed from the incubator and washed 1× in sterile PBS to remove serum containing calcium esterases. Calcein AM reagent (30 μL, […]) was added and the cells were incubated for 30 min at 37° C. Plates were read for emission using a fluorescein filter (excitation 485 nm, emission 535 nm).
IC50 Calculation: For each library member, at least six dose response experiments were conducted. […] To calculate IC50, percent inhibitions were plotted as a function of log [concentration] and then fit to a four-parameter logistic model that allowed for a variable Hill slope using XLfit 4.1.
Cytotoxicity Assays. All cell lines except NmuMG were maintained in RPMI 1640 medium supplemented with 10% w/v fetal bovine serum (FBS) and penicillin-streptomycin (PS) (100 U/mL and 100 μg/mL).

Row | Compound | IC50 (Na+/K+-ATPase) [nM] | IC50 (MCF7; MCF7 cells) [nM] | IC50 (MCF7; Homo sapiens, MCF7, MCF7 cells) [nM] | IC50 ([1]; Homo sapiens, read-out: average IC50) [nM] | cytotoxicity (in words) ([1]; cell line panel, 72 h, calcein AM) | IC50 ([1]; range over cell lines) [nM]
1 | CON([C@H]1CC[C@@]2(C)[C@H](CC[C@@H]3[C@@H]2CC[C@]2(C)[C@@H](C4=CC(=O)OC4)CC[C@]32O)C1)[C@@H]1O[C@H](CO)[C@@H](O)[C@H](O)[C@@H]1O [27β, D-mannoside] | > 300000 | 1700 | – | – | – | –
2 | C[C@H]1O[C@@H](O[C@H]2[C@@H](O)C[C@H](O[C@H]3[C@@H](O)C[C@H](O[C@H]4CC[C@@]5(C)[C@H](CC[C@@H]6[C@@H]5CC[C@]5(C)[C@@H](C7=CC(=O)OC7)CC[C@]65O)C4)O[C@@H]3C)O[C@@H]2C)C[C@H](O)[C@@H]1O [digitoxin] | – | – | 320 | ~440 | – | –
3 | CON([C@H]1CC[C@@]2(C)[C@H](CC[C@@H]3[C@@H]2CC[C@]2(C)[C@@H](C4=CC(=O)OC4)CC[C@]32O)C1)[C@H]1OC[C@H](O)[C@@H](O)[C@@H]1O [23β, L-xyloside] | > 500000 | 230 | – | – | significantly more potent than digitoxin against some cell lines | –
4 | CON([C@H]1CC[C@@]2(C)[C@H](CC[C@@H]3[C@@H]2CC[C@]2(C)[C@@H](C4=CC(=O)OC4)CC[C@]32O)C1)[C@H]1OC[C@H](O)[C@H](O)[C@@H]1O [5β, L-riboside] | 270000 | 190 | – | – | – | 18 to 59

— patent US8507411B2, “Neoglycorandomization and digitoxin analogs” (priority 2004, dated 2013)
